In publication PMC11508362, “Discovery of Novel Thiazole-Based SIRT2 Inhibitors as Anticancer Agents: Molecular Modeling, Chemical Synthesis and Biological Assays” (International Journal of Molecular Sciences, 2024):
Read-outs that look alike come from different tables or passages of the source.

Key:
[1] = molecular target: T1, SIRT2 (Homo sapiens, UniProt Q8IXJ6); conditions: cited from earlier work
T1 sequence (Q8IXJ6 1-389): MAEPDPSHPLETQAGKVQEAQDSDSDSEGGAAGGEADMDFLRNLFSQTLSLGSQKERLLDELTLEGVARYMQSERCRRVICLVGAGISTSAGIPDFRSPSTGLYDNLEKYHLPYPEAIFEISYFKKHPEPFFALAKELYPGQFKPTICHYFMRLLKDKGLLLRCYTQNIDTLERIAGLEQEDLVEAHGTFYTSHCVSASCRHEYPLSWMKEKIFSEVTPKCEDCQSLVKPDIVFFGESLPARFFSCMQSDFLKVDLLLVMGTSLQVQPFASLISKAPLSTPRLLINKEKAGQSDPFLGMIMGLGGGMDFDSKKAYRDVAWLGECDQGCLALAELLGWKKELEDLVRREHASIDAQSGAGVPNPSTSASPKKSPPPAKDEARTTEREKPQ

[2] = molecular target: T2, SIRT1 (Homo sapiens, UniProt Q96EB6); test: SIRT1 deacetylation reaction, recombinant protein; format: biochemical; conditions: deacetylase activity, SD always ≤10%
T2 sequence (Q96EB6 1-747): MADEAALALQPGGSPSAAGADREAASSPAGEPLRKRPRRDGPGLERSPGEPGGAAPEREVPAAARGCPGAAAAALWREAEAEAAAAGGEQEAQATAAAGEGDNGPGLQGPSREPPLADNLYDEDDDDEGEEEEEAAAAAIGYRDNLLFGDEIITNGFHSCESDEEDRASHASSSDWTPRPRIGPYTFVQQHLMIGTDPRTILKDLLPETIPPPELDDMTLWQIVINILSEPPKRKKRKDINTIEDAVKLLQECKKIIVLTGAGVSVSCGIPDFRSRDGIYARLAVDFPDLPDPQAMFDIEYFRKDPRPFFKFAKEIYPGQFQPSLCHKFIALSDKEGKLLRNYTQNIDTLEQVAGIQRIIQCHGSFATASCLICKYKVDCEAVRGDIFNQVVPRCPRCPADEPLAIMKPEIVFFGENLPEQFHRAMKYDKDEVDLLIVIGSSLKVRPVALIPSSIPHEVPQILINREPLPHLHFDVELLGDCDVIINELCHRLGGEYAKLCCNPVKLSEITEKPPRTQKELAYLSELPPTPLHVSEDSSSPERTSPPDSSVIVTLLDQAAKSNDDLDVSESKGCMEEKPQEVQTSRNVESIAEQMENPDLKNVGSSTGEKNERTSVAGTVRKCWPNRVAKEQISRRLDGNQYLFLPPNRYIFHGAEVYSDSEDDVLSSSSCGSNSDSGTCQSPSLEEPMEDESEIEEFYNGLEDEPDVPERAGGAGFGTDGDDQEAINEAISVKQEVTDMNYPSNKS
Method: (§1) Next, the selectivity of the compounds for SIRT2 against other sirtuins was also determined. The compounds were tested at the final concentration of 150 µM in the deacetylation reaction of SIRT1, SIRT3 and SIRT6, with this last one being promoted by the addition of the SIRT6 activator MDL-800 and also in the depalmitoylation reaction of SIRT6.

[3] = molecular target: T3, SIRT3 (Homo sapiens, UniProt Q9NTG7); test: SIRT3 deacetylation reaction, recombinant protein; format: biochemical; conditions: deacetylase activity, SD always ≤10%
T3 sequence (Q9NTG7 1-399): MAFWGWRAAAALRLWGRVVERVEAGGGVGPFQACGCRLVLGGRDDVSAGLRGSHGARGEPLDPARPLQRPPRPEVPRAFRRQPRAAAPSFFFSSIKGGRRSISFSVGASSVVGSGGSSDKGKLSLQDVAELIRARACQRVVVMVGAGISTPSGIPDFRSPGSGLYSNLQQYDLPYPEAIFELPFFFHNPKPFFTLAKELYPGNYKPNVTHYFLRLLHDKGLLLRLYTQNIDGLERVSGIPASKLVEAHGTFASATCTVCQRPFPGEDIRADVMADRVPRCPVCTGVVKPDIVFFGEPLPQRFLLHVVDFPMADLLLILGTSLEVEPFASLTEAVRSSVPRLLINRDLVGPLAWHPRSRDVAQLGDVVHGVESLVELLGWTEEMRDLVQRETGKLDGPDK
Method: as §1

[4] = molecular target: T4, SIRT6 (Homo sapiens, UniProt Q8N6T7); test: SIRT6 deacetylation reaction promoted by the SIRT6 activator MDL-800, recombinant protein; format: biochemical; conditions: with SIRT6 activator MDL-800, SD always ≤10%; for inhibition at 150 µM: read-out: % Inhibition SIRT6 (Deacetylase); for % Inhibition SIRT6 (Deacetylase): 150 µM
Method: as §1

[5] = molecular target: T4, SIRT6; test: SIRT6 depalmitoylation reaction (H3K9Palm), recombinant protein; format: biochemical; conditions: 150 µM, SD always ≤10%
Method: as §1

[6] = molecular target: T1, SIRT2; test: SIRT2 deacetylase activity, recombinant SIRT2 with acetylated peptide H3K9Ac and NAD+; conditions: for inhibition at 150 µM: read-out: % Inhibition SIRT2 (at 150 μM)
Method: The effect of urea derivatives on SIRT2 deacetylase activity was evaluated upon incubation of recombinant SIRT2 with an acetylated peptide (H3K9Ac, a peptide acetylated on Lys 9) and the co-substrate NAD^+.

[7] = tested on: acetylation of α-tubulin in SCC13 cells; test: Western blot of α-tubulin acetylation (endogenous SIRT2 inhibition) in SCC13 cells; format: cell-based; conditions: 5 μM, 48 h, Western blot normalized to total α-tubulin
Method: To confirm that the effect of 5a on cell viability was due to its ability to inhibit the endogenous SIRT2, Western blot analyses were performed to quantify the level of acetylation of α-tubulin, a direct substrate of SIRT2 enzymatic activity.
SCC13 cells (3 × 10^5) were seeded in 60 mm Petri dishes and left to adhere overnight. The day after, the medium was replaced with a medium containing 5a at a final concentration of 5 µM or the respective amount of DMSO vehicle. After 48 h, the medium was removed, and cells were washed with PBS and lysed by scraping with 100 µL of lysis buffer (25 mM Tris-HCl, pH 7.8; 2 mM DTT; 2 mM EDTA, 10% glycerol; 1% Triton® X-100). The lysate was clarified by centrifugation, and the protein concentration was measured using the Bradford assay. Twenty µg of proteins were loaded on a 10% polyacrylamide gel and then transferred to a nitrocellulose membrane. The membrane was saturated with 5% skim milk powder solution in TBS-Tween 0.05%. To determine the acetylation of alpha-tubulin, membranes were incubated with an anti-acetyl-alpha-tubulin antibody (#5335, Cell Signaling Technology, Danvers, MA, USA), whose signal was normalized on the total amount of alpha-tubulin (#2125, Cell Signaling Technology).

[8] = Table S1, ref [2] Schiedel et al., J. Med. Chem. 2016, read-out: IC50 of SIRT2 inhibition (Table S1)
[9] = Table S2, SIRT2 inhibition of SirReal2 analogues, read-out: IC50 (Table S2)
[10] = SirReal2 analogs, read-out: SIRT2 IC50

T4 sequence (Q8N6T7 whole entry, species assumed): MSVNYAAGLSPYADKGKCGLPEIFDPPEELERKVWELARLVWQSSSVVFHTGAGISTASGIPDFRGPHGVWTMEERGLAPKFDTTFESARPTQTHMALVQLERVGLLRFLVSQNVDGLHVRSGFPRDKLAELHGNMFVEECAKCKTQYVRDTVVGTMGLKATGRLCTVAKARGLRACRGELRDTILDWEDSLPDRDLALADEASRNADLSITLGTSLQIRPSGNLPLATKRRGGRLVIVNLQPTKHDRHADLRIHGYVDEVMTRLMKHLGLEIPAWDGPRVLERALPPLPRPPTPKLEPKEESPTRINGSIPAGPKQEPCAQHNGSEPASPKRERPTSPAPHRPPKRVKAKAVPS

For `Cc1cc(C)nc(SC(C)C(=O)Nc2ncc(Cc3cccc4ccccc34)s2)n1` (stereo not shown) [Compound 12], the IC50 [1, 8] is listed as 0.3 µM and the IC50 [1, 9] is listed as 0.26 µM.

For `CCCc1cc(O)nc(SCC(=O)Nc2ncc(Cc3cccc4ccccc34)s2)n1` [Compound 20], the IC50 [1, 8] is listed as 127 µM and the IC50 [1, 9] is listed as 127 µM.

For `O=C(CSc1cccc(O)c1)Nc1ncc(Cc2cccc3ccccc23)s1` [Compound 7], the IC50 [1, 10] is given as 143 to 207 µM and the IC50 [1, 8] is given as 143 µM.

Molecule `Cc1sc(NC(=O)NCc2ccccc2)nc1-c1ccc(Br)cc1` [Compound 3d, 1-benzyl-3-(4-(4-bromophenyl)-5-methylthiazol-2-yl)urea] has an inhibition at 150 µM [2] of 99%, an inhibition at 150 µM [3] of 23% and an inhibition at 150 µM [4] of 15%. The “% Inhibition SIRT6 (Depalmiotoylase)” value [5] was “ni”, the IC50 [6] was 108 ± 4 µM and the inhibition at 150 µM [6] was 100 ± 4%.

In the case of `Cc1sc(N)nc1-c1ccc(Br)cc1` [Compound 2], the IC50 [1, 8] is given as 16.8 µM.

In the case of `COc1cccc(NC(=O)Nc2nc(-c3ccc(Br)cc3)c(C)s2)c1` [Compound 3b, 1-(4-(4-bromophenyl)-5-methylthiazol-2-yl)-3-(3-methoxyphenyl)urea], the inhibition at 150 µM [2] is reported as 98%, the inhibition at 150 µM [3] is reported as 14% and the “% Inhibition SIRT6 (Deacetylase)” value [4] is reported as “ni”. The “% Inhibition SIRT6 (Depalmiotoylase)” value [5] was “ni” and the inhibition at 150 µM [6] was 93 ± 4%.

In the case of `CCOc1cccc(Cc2cnc(NC(=O)CSc3nc(C)cc(C)n3)s2)c1` [Compound 5], the IC50 [1, 8] is given as 1.3 µM and the IC50 [1, 9] is given as 1.33 µM.

In the case of `Cc1cc(C)nc(SCC(=O)Nc2nnc(C(F)(F)F)s2)n1` [Compound 21], the IC50 [1, 10] is given as 503 µM.

In the case of `Cc1nc(SCC(=O)Nc2ncc(Cc3cccc4ccccc34)s2)nc(C)c1C` [Compound 18], the IC50 [1, 8] is listed as 15 µM and the IC50 [1, 9] is listed as 15 µM.

For `Cc1cc(C)nc(SCC(=O)Nc2ncc(Cc3c(C)ccc4ccccc34)s2)n1` [Compound 13], the IC50 [1, 8] is given as 0.3 µM and the IC50 [1, 9] is given as 0.31 µM.

For `N#C/C(=C\c1ccc(-c2cc(Cl)ccc2Cl)o1)C(=O)Nc1cccc2ncccc12` [AGK2, reference compound], the “level of α-tubulin acetylation vs control cells” value [7] was “increased levels of alpha-tubulin acetylation”.

In the case of `CC(=O)c1cccc(NC(=O)Nc2nc(-c3ccc(Br)cc3)c(C)s2)c1` [Compound 3a, 1-(3-acetylphenyl)-3-(4-(4-bromophenyl)-5-methylthiazol-2-yl)urea], the inhibition at 150 µM [2] is reported as 86%, the inhibition at 150 µM [3] is reported as 6% and the inhibition at 150 µM [4] is reported as 42%. For the same molecule, the “% Inhibition SIRT6 (Depalmiotoylase)” value [5] was “ni”, the IC50 [6] was 37 ± 2 µM and the inhibition at 150 µM [6] was 100 ± 5%.

Molecule `CSc1cccc(NC(=O)Nc2nc(-c3ccc(Br)cc3)c(C)s2)c1` [Compound 3c, 1-(4-(4-bromophenyl)-5-methylthiazol-2-yl)-3-(3-(methylthio)phenyl)urea] has an inhibition at 150 µM [2] of 100%, an inhibition at 150 µM [3] of 20% and an inhibition at 150 µM [4] of 7%. For the same molecule, the “% Inhibition SIRT6 (Depalmiotoylase)” value [5] was “ni”, the IC50 [6] was 26 ± 4 µM and the inhibition at 150 µM [6] was 96 ± 6%.

For `CCOC(=O)c1sc(NC(=O)NCc2ccccc2)nc1-c1ccc(Br)cc1` [Compound 5d, Ethyl 2-(3-benzylureido)-4-(4-bromophenyl)thiazole-5-carboxylate], the inhibition at 150 µM [2] was 92%, the inhibition at 150 µM [3] was 24% and the “% Inhibition SIRT6 (Deacetylase)” value [4] was “ni”. For the same molecule, the “% Inhibition SIRT6 (Depalmiotoylase)” value [5] was “ni” and the inhibition at 150 µM [6] was 93 ± 4%.
